The values below come from patent US20030083357A1, “Oxime derivatives for the treatment of dyslipidemia and hypercholesteremia” (priority 2001, published 2003).

For data set [1], the system named is Sprague Dawley Rats Maintained on a High Cholesterol Atherogenic Diet. Description: Oral treatment of hypercholesterolemia in Sprague Dawley rats on a high cholesterol atherogenic diet. The following applies: 10 mg/kg once daily by oral gavage in sesame oil, five days, p≦0.01. It is filed as in vivo, rat. The protocol: Six week-old male Sprague Dawley rats (HSD, Harlan) were housed in a fixed 12-12- hr artificial light-dark cycle, and maintained on a high cholesterol, atherogenic diet ad libitum (#C13002, Research Diets, NJ).
Animals were maintained on this diet throughout the course of the study.
Following six days of maintenance on the high cholesterol diet, the animals were bled from the tail vein (100-200 μL of whole blood) and serum levels of total cholesterol were measured in duplicate (Infinity Cholesterol Kit; Sigma, St. Louis, Mo.). Based on these initial measures, animals were sorted into groups with approximately the same average serum cholesterol levels. Once sorted, the animals were housed three per cage and maintained on the high cholesterol diet ad libitum.
Treatment groups(n=6/group):
1) Lean Sprague Dawley control (sesame oil)
2) High cholesterol fed control (sesame oil)
3) Compound 1 in sesame oil (10 mg/kg; once daily)
Drug is prepared by mixing Compound 1 in sesame oil, and administered to animals in a volume of 3 ml/kg/dose. Drug is administered by oral gavage daily for five consecutive days.
To monitor the effect of Compound 1, animals were bled from the tail vein five days after commencement of oral treatment. Serum cholesterols were measured in duplicate. […]

In data set [2] the test system is Obese, Glucose Intolerant Zucker Fatty Rats (fa/fa). Description: Glucose tolerance test in obese, glucose intolerant Zucker Fatty Rats (fa/fa) after oral treatment. It is filed as in vivo, rat. The following applies: 10 mg/kg once daily by oral gavage in sesame oil, 1 week; 2 g/kg oral glucose after 12 hr fast, serum glucose at 0.5, 1, 2 hours; p<0.05 and p<0.01; FIG. 3. The protocol:
Ten week-old male Zucker Fatty Rats (fa/fa; Harlan) were housed in a fixed 12-12- hr artificial light-dark cycle, and maintained on a standard diet provided ad libitum. Animals were allowed two days to acclimate in this experimental environment prior to the initiation of the study.
Prior to initiation of treatment, the animals were bled from the tail vein (100-200 μL of whole blood) and serum levels of triglycerides were measured in duplicate (Infinity kits; Sigma, St. Louis, Mo.). Based on these initial measures, animals were sorted into groups with approximately the same average serum triglyceride levels. Once sorted, the animals were housed one per cage and provided standard rodent diet ad libitum.
Treatment groups (n=5/group):
2) Compound 1 in sesame oil (10 mg/kg once daily)
Drug is prepared by mixing Compound 1 in sesame oil, and administered to animals in a volume of 3 ml/kg/dose. Drug is administered by oral gavage once daily.
To monitor the effect of Compound 1, animals were tested in a glucose tolerance test. One day prior to the tolerance test, the animals were fasted overnight (12 hr fast). Animals were then bled at 0 hours to establish baseline glucose levels. […] The animals were then bled 0.5, 1, and 2 hours later and serum glucose levels were measured in duplicate. […]

Entries after “also recorded” stand apart in the source; their conditions may differ.

The term melting point denotes the temperature, or range, at which the solid turns liquid. `COc1ccc(/C=N/O)cc1-c1cc2c(cc1C)C(C)(C)CCC2(C)C` [Compound 1, 3-(3,5,5,8,8-Pentamethyl-5,6,7,8-tetrahydro-2-naphthyl)-4-methoxybenzaldehyde oxime]: the melting point was 152 °C. Moreover, the total serum cholesterol result in data set [1] (compared to control animals on the same atherogenic diet, FIG. 1) is reported as “significantly reduced”. Further, the LDL cholesterol levels result in data set [1] (compared to controls, FIG. 2) was “reduced”. Moreover, the “glucose clearance rate (glucose tolerance test)” value in data set [2] is reported as “improvement of glucose tolerance; also recorded: significant increase”.
